# Patent publication US12583841B2, “Tetrahydropyrrolocyclic compound and application thereof” (Breakthrough Pharmaceuticals Inc., priority 2021, dated 2026)
# Like-named read-outs stand apart in the source and are kept apart here. Marks after values point to notes of the source that are not given here.
# Tests used:
# SD rats = assay: Effect on sleep in SD rats by electroencephalogram/electromyography telemetry; format: in vivo; conditions: SD rat EEG, Mean±SEM; for Sleep latency: blank vehicle 32 ± 3.1; for NREM sleep time within 7 h after administration: blank vehicle 102 ± 18; for Total awake time within 7 h after administration: blank vehicle 303 ± 20
# Description: Test purpose: to evaluate the effect of test substance on sleep in SD rats by electroencephalogram/electromyography telemetry (EEG).
# Test scheme: 36 male SD rats aged 5-6 weeks needed an adaptation period of 5-15 days after arriving at the facility, during which the experimental animals were placed in an alternating light and dark environment for 12 h for adaptation (light on: 19:00; light off: 07:00) to adjust the rhythm time, and the health of the animals was monitored every day. Animals needed to be surgically implanted with electroencephalogram electrode and electromyography electrode for later telemetry data collection. On the day of the operation experiment, the animals were anesthetized with Zoletil (i.p., 20 mg/kg) combined with xylazine (i.p., 8 mg/kg). After anesthesia, the animals were fixed by brain stereotaxic apparatus. After the head has hair clipped and was disinfected, the skin of the head was cut, and the four corners were clamped with hemostats to fully expose the skull. The periosteum was peeled off and wiped with dry absorbent cotton until the surface was clean. A hole was drilled according to the type of implanter, and an electrode was implanted and in contact with the dura mater. The electrode was fixed on the skull with dental cement. At the same time, the cement dripping on the tissue and skin was cleaned up. The 2 electromyography electrodes were respectively inserted into the neck muscles in parallel, and the two ends were fixed with sutures to prevent their ends from touching each other. The implanter was then placed under the skin, and the surgical wound was sutured and sterilized. After the operation, the rats were carefully placed in a clean recovery cage, lying on their sides to ensure a smooth airway. The rats were raised in a single cage and placed in a shielded recovery room, in which the light and dark automatically alternated for 12 h (light on: 19:00, light off: 07:00), the temperature was 20-26° C., and the relative humidity was 40-70%. After the operation, the animals were given nursing care for 3 days. The surgical incision was treated with cephradine powder locally, gentamicin at 4-8 mg/kg was subcutaneously administered, and meloxicam at 0.1 mL/rat was injected subcutaneously for 3 consecutive days. The experiment was carried out after 7-10 days of recovery and the animals were randomly divided into groups according to their weight the day before the experiment.
# On the day of the experiment, the basic electroencephalogram and electromyography were recorded first, and then the administration began. During and after the administration, the electroencephalogram and electromyography were recorded continuously until 24 h after the administration. Raw data were collected by DSI system Ponemah software and analyzed by NeuroScore software. The experimental data were represented by the mean±standard error (Mean±SEM), and statistical analysis was performed using the one-way variance method. Compared with the blank vehicle group, P<0.05 indicated a significant difference, and represented as *; P<0.01 indicated a very significant difference, and represented as **; P<0.001 indicated an extremely significant difference, and represented as ***.
# [1] = Drug concentration in brain tissue and plasma of SD rats; format: in vivo; conditions: male, Sprague-Dawley (SD), po, SD rat, p.o. 30 mg/kg
# Description: (§1) 4 healthy SD rats aged 6-9 weeks were selected, and the other group was given the test compound at 10 mg/kg by intragastric administration. 2 animals were randomly selected at 0.5 h and 2 h after administration, respectively. Plasma and brain tissue samples were collected, and LC-MS/MS method was used for quantitative analysis of all biological samples.
# as §1, with “healthy male” for “healthy”, “selected” for “selected,”, “and” for “and the other group was”, “compound” for “compound at 10 mg/kg”, “selected to be euthanized” for “selected”
smiles,measurement,setting,value
COc1ccc(-n2nccn2)c(C(=O)N2C(c3nc4ccc(OC)cc4[nH]3)CC3CC32)c1 (stereo not drawn) [Compound 8],Sleep latency,SD rats; 5 mg/kg,27 ± 8.1 min
same,NREM sleep time within 7 h after administration,SD rats; 5 mg/kg,129 ± 17 min
same,Total awake time within 7 h after administration,SD rats; 5 mg/kg,274 ± 19 min
same,Sleep latency,SD rats; 10 mg/kg,15 ± 2.9** min
same,NREM sleep time within 7 h after administration,SD rats; 10 mg/kg,144 ± 16 min
same,Total awake time within 7 h after administration,SD rats; 10 mg/kg,250 ± 21 min
same,Sleep latency,SD rats; 30 mg/kg,7 ± 1.3*** min
same,NREM sleep time within 7 h after administration,SD rats; 30 mg/kg,171 ± 11** min
same,Total awake time within 7 h after administration,SD rats; 30 mg/kg,228 ± 12* min
same,Kp at 0.5 h,"[1]; brain / plasma, 0.5 h, read-out: Brain-to-blood ratio",0.25
same,Kp at 2 h,"[1]; brain / plasma, 2 h, read-out: Brain-to-blood ratio",0.19
same,concentration at 0.5 h,"[1]; brain, 0.5 h, read-out: Drug concentration in brain",1390 nM
same,concentration at 2 h,"[1]; brain, 2 h, read-out: Drug concentration in brain",212 nM
same,concentration at 0.5 h,"[1]; plasma, 0.5 h, read-out: Drug concentration in plasma",5600 nM
same,concentration at 2 h,"[1]; plasma, 2 h, read-out: Drug concentration in plasma",1100 nM
